Entries after “also recorded” stand apart in the source; their conditions may differ.
Columns and labels:
[1] = tested on: medial prefrontal cortex neurons; assay: In vivo single unit recordings from medial prefrontal cortex during natural sleep, spike rate and population coupling; design: species or system mouse; settings: 5 mg/kg body weight i.p.; versus PBS; normalized to baseline; FIG. 9B
Method: C57BL/6J mice aged 10-11 weeks were anesthetized with isofluorane (induction: 3%, maintenance approximately 1.5%). Buprenorphin (0.05-0.1 mg/kg body weight) and Carprofen (4-5 mg/kg body weight) were injected for analgesia. During implantation, the body temperature was maintained with a heating pad. The skin was incised from the cerebellum to the nose and the bone cleaned with 3% H2O2. Ground and reference screws (1 mm diameter) were inserted anterior to the lambdoid suture. A third stabilizing screw was inserted on the left parietal bone. […]
After habituation to the recording room for several days, single-unit recordings were performed at a sampling frequency of 30 kHz using a 32-channel amplifier (Intan Technologies). […] First, a baseline was recorded during sleep identified as epochs when mice were completely immobile in their home cage and slow wave activity could be seen in the PFC local field potential. […]
Recording sections containing artefacts were manually identified and removed. […] Firing rates were estimated from the total number of spikes during the analyzed behavioral episodes divided by the duration. To quantify population synchrony, we utilized a metric that compares the rate change of a given unit to the normalized population rate at each time point. […]

C57BL/6J mice = assay: T-maze spontaneous alternation test (spatial working memory); assay type: in vivo, mouse; settings: for spatial working memory (T maze test): systemic (intraperitoneal) injection, FIG. 11 left; for T maze performance: 5 mg/kg i.p. 1 h before
Method: In order to acutely deplete the gut microbiota, 15-16 months old SPF males were treated via oral gavage with a mixture of antibiotics (ABX), containing Cefoxitin (Santa Cruz Biotechnology), Gentamicin (Sigma-Aldrich) Metronidazole (Sigma-Aldrich), and Vancomycin (Hikma-pharma), each 10 mg/kg in sterile 1×PBS, for three consecutive days. On the fourth day, the mice were treated with one dose of Clindamycin hydrochloride (33.3 mg/kg) (Sigma-Aldrich). Fecal microbiota transplantations (FMTs) were started 24 h later. To deplete csf1-dependent cells in vivo, including microglia, mice were provided with CSF1R-inhibitor PLX5622 (Plexxicon Inc.) mixed into AIN-76A standard chow at 1200 mg/kg (Research Diets Inc.) ad libitum. Respective controls received AIN-76A standard chow. Mice were injected with 5 mg/kg δ-valerobetaine (MCAT, Germany) 1 h before behavioral testing.
For microbiota depletion studies, SPF mice were treated with 1 mg/ml of ampicillin (Auromedics), neomycin sulfate (Fisher), streptomycin (Sigma) and 0.5 mg/ml of vancomycin (Sagent) in the drinking water for 4-5 weeks (Khosravi et al., 2014). These mice were recolonized via FMT, which was achieved by oral gavage of a faecal slurry. Recipient mice had the food removed from the cage for 2 h prior to FMT. The faecal slurry was obtained by pooling faecal pellets from 8-14 donor mice. The pellets were weighed and resuspended by vortexing for 1 min in 1 mL PBS per 300 mg of faeces. After pelleting larger particles by centrifugation at 500×g for 5 min, the supernatant was collected for FMT. Each recipient mouse received 150 μl of faecal slurry by oral gavage. The remaining slurry was stored at −80° C. for 16S rRNA sequencing. Following FMT, the cages of recipient mice were replenished with dirty bedding and fresh faecal pellets from donor mice once and twice a week, respectively. Faecal pellets for 16S rRNA sequencing were collected the day before FMT and at the end of the experiment and were stored at −80° C. for DNA extraction. For re-colonization of ABX treated mice, FMTs from 8 weeks old or 15-16 months old males were undergone. Fresh fecal pellets are collected under a sterile hood and directly thoroughly homogenized in 0.1% L-Cysteine hydrochloride monohydrate in 1×PBS in order to maintain anaerobic microbes. The homogenates were spun down for 1 min, 200 g at 4° C. and the turbid supernatant was used to orally and rectally gavage the recipient mice. The FMT was performed twice 72 h apart.
NNN-trimethyl-5-aminovalerate was dissolved in 0.9% NaCl and administered i.p. at a dose of 200 mg/kg in a volume of 10 ml/kg. As control the vehicle NaCl was injected.
Mice were tested 40 min after drug- or vehicle injection or 4 weeks after FMT. We first performed the training run for the Novel-object recognition test, followed by the T maze test and then 6 h after the training session mice were tested in the Novel object recognition test. Spatial working memory was tested using the continuous spontaneous alternation task in a T-maze as described previously (Spowart-Manning, L. et al). Briefly, animals were set into the base of a T-maze and allowed to explore a randomly assigned T-maze arm until it returned to the base arm. Subsequently, the blocked arm was opened, and the animal was allowed to explore the complete maze. Once one arm of the T-maze was entered, the other arm was blocked until the animal returned to the base arm. Then, the exit of the base arm was blocked for 5 s and the animal was allowed to explore the maze again. The experiment was stopped after 14 free choice arm entries. Arm entries were scored as alternations if an animal chose the opposing arm compared to the arm visited immediately prior to the scored instance. The Novel Object Recognition (NOR) task was applied to evaluate recognition memory as published previously (Antunes, M. & Biala, G. et al). During the habituation phase, each mouse was allowed to explore two similar objects within a total exploration time of 20 s. […]

Q: For `C[N+](C)(C)CCCCC(=O)[O-]` [NNN-trimethyl-5-aminovalerate, 5-(trimethylammonio) pentanoate], which “average spike frequency (spike firing rate)” value [1] is on record?
A: No effect; also recorded: no change

Q: And the population coupling [1]?
A: significant increase

Q: What about the “T maze: improvement in learning and memory after FMT from young mice” value (C57BL/6J mice; old mice (15-16 months) +ABX+yFMT, 5 mg/kg i.p. 1 h before testing, FIG. 10F) of the same compound?
A: abolished

Q: What about the “spatial working memory (T maze test)” value (C57BL/6J mice; old mice (20-24-month-old)) of the same compound?
A: no additional impairing effects

Q: And the T maze performance (C57BL/6J mice; old mice that had received gut microbiota from old mice (old+ABX+oFMT), FIG. 10F)?
A: no additional deteriorating effect

Q: What about the T maze performance (C57BL/6J mice; young adult mice (8 weeks), versus vehicle, FIG. 10B) of the same compound?
A: significantly worse

Q: And the “spatial working memory (T maze test)” value (C57BL/6J mice; young mice (2-month-old), PBS control)?
A: reduced
